Columns and labels:
CYP3A4 genetic variants = test: Static model estimate of residual enzyme activity and midazolam AUC ratio in CYP3A4 genetic variants; design: species or system human; conditions: all genetic variants; increase in AUC of 2- to < 5-fold; estimated
Method: (§1) Based on the static model, residual enzyme activity (ε) under the steady state is determined by the inactivation rate by the MBI inhibitor (k inact ([I])) and the turnover rate in the absence of inhibitor (k deg), and calculated by using the following Equation 2.

[1] = tested on: five CYP3A4 genetic variants (Wt, .2, .7, .16, .18); test: Mechanism-based inhibition of midazolam 1′-hydroxylation, results stated across the five variants; format: biochemical, human; conditions: all CYP3A4 variants; preincubation with NADPH-generating system
Method: (§2) Next, 4 µM midazolam solution (final concentration at incubation: 2 µM) together with NADPH-generating system solution and 300 mM K^+ phosphate buffer containing 0.3 mM EDTA were added to start the metabolic reaction for 20 minutes at 37 °C. The reaction was terminated by the addition of 450 µL of ice-cold methanol, followed by 50 µL of 0.1 µM nitrazepam as an internal standard. The mixture was then centrifuged at 3,500 ×g for 20 minutes at 4 °C, and the concentration of 1′-hydroxymidazolam in the supernatant was determined using HPLC-ultraviolet (UV) method described below.
(§3) The HPLC system consisted of a pump ([…]; Shimadzu, Kyoto, Japan), an UV-detector SPD-10AD (Shimadzu), and an octadecylsilyl column (Cosmosil, 5C18-MS-II, 4.6×250 mm, ODS; Nacalai Tesque, Kyoto, Japan). The mobile phase consisted of 50% methanol (v/v) and was pumped at a rate of 1.5 mL/min. The UV wavelength was set at 245 nm.
as §1

[2] = tested on: CYP3A4 WT, .2, .7, .16, .18; test: as above; format: biochemical, human; conditions: human, pH 7.4, probe midazolam 2 µM (1′-hydroxylation), range over the five variants
Method: as §2, §3, §1

[3] = Clinical plasma concentration; format: in vivo, human; conditions: for Cmax,u (maximum plasma unbound concentration in the clinical settings): Cmax × fu; for Cmax: oral, human plasma, converted from μg/mL
CYP3A4 WT = biological target: T1, CYP3A4 WT (Homo sapiens, UniProt P08684); test: Mechanism-based inhibition of midazolam 1′-hydroxylation by recombinant CYP3A4 WT; format: biochemical; conditions: substrate midazolam, geometric mean (–1S.D. ~ +1S.D.), n = 5, read-out: K I
T1 construct: made in house; host or cells: Escherichia coli
T1 sequence (P08684 whole entry): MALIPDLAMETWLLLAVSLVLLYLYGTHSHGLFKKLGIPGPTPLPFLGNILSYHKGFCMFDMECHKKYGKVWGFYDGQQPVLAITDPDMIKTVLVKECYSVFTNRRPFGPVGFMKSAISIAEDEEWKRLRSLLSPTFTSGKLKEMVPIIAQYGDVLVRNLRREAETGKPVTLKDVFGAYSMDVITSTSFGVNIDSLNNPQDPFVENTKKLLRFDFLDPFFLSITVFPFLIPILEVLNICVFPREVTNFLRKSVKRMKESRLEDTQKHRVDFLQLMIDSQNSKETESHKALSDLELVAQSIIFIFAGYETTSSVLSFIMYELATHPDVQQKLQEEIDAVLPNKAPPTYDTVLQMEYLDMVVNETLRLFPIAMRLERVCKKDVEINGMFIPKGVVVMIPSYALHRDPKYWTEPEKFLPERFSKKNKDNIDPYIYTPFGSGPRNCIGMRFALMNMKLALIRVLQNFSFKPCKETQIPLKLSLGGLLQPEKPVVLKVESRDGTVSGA
Method: (§4) 1′-Hydroxymidazolam was purchased from Biosciences-Discovery Labware (Tokyo, Japan). The membrane fraction of CYP3A4 (WT, .2, .7, .16, .18) expressed by Escherichia coli were prepared according to our previously reported method. All other chemicals and reagents of analytical and high-performance liquid chromatography (HPLC) grade were obtained from commercial sources.
as §2, §3

CYP3A4.2 = biological target: T2, CYP3A4.2 (Homo sapiens, UniProt P08684, S222P); test: Mechanism-based inhibition of midazolam 1′-hydroxylation by recombinant CYP3A4.2; format: biochemical; conditions: substrate midazolam, geometric mean (–1S.D. ~ +1S.D.), n = 5
T2 construct: made in house; host or cells: Escherichia coli
T2 sequence (P08684 whole entry S222P): as the sequence (P08684 whole entry) above, with S222P counted along it
Method: as §4, §2, §3

CYP3A4.16 = biological target: T3, CYP3A4.16 (Homo sapiens, UniProt P08684, T185S); test: Mechanism-based inhibition of midazolam 1′-hydroxylation by recombinant CYP3A4.16; format: biochemical; conditions: substrate midazolam, geometric mean (–1S.D. ~ +1S.D.), n = 5
T3 construct: made in house; host or cells: Escherichia coli
T3 sequence (P08684 whole entry T185S): as the sequence (P08684 whole entry) above, with T185S counted along it
Method: as §4, §2, §3

CYP3A4.7 = biological target: T4, CYP3A4.7 (Homo sapiens, UniProt P08684, G56D); test: Mechanism-based inhibition of midazolam 1′-hydroxylation by recombinant CYP3A4.7; format: biochemical; conditions: substrate midazolam, geometric mean (–1S.D. ~ +1S.D.), n = 5
T4 construct: made in house; host or cells: Escherichia coli
T4 sequence (P08684 whole entry G56D): as the sequence (P08684 whole entry) above, with G56D counted along it
Method: as §4, §2, §3

[4] = erythromycin; cited from earlier work
CYP3A = conditions: cited from earlier work

| SMILES | extent of DDI category based on the FDA guideline (CYP3A4 genetic variants) | inhibition of 1′-hydroxylation of midazolam by all CYP3A4 variants [1] | Ki ([2]; in vitro data in the present study, substrate midazolam, read-out: KI (range among variants)) [nM] | KI (inactivation) ([2]; product of K I and fu,mic, read-out: KI,u (unbound concentration of inhibitor that confers half-maximal rate of inactivation)) [nM] | Cmax,u (maximum plasma unbound concentration in the clinical settings) [3] [nM] | Cmax [3] [nM] | KI (inactivator concentration giving half-maximal inactivation rate) (CYP3A4 WT) [nM] | Ki (CYP3A4.2) [nM] | Ki (CYP3A4.16) [nM] | Ki (CYP3A4.7) [nM] | fu,mic (estimated unbound fraction in microsomal preparation) [4] | fm,CYP3A (contribution of 1-hydroxylation by CYP3A to overall systemic elimination) (CYP3A) [%] |
| --- | --- | --- | --- | --- | --- | --- | --- | --- | --- | --- | --- | --- |
| CC[C@H]1OC(=O)[C@H](C)[C@@H](O[C@H]2C[C@@](C)(OC)[C@@H](O)[C@H](C)O2)[C@H](C)[C@@H](O[C@@H]2O[C@H](C)C[C@H](N(C)C)[C@H]2O)[C@](C)(OC)C[C@@H](C)C(=O)[C@H](C)[C@@H](O)[C@]1(C)O [Clarithromycin] | moderate | time-dependent manner | 689 to 2690 | 590 to 2310 | 775 | 1550 |  |  |  |  |  |  |
| CC[C@H]1OC(=O)[C@H](C)[C@@H](O[C@H]2C[C@@](C)(OC)[C@@H](O)[C@H](C)O2)[C@H](C)[C@@H](O[C@@H]2O[C@H](C)C[C@H](N(C)C)[C@H]2O)[C@](C)(O)C[C@@H](C)C(=O)[C@H](C)[C@@H](O)[C@]1(C)O [Erythromycin] |  |  |  |  | 721 | 1120 | 677 | 1140 | 1820 | 512 | 0.857 |  |
| Cc1ncc2n1-c1ccc(Cl)cc1C(c1ccccc1F)=NC2 [midazolam, Midazolam] |  |  |  |  |  |  |  |  |  |  |  | 98 |

Source: paper PMC8795987, “Time-dependent inhibition of CYP3A4-mediated midazolam metabolism by macrolide antibiotics in CYP3A4 genetic variants: Comparison with testosterone metabolism” (International Journal of Clinical Pharmacology and …, 2021)
